# Source: patent US7678363B2, “Methods of treating psychiatric conditions comprising administration of muscarinic agents in combination with SSRIs” (priority 2005, dated 2010)
# pEC50, pIC50: −log10 of the molar value. Counter-ions that a name gives are not always drawn.
# Assays:
# [1] = test system: Human neural stem cells (hNSCs); test: Neuronal differentiation of human neural stem cells (TUJ-1 staining); assay type: cell-based; details: for pEC50: read-out: EC50 for neuronal differentiation, agent alone
# Description: Mitogen-free test media with 5 μM DHEA served as a positive control for neuronal differentiation, and basal media without growth factors served as a negative control.
# The presence of synergy was determined by use of a combination index (CI). […] The CI is a quantitative measure of the nature of drug interactions, comparing the EC50's of two compounds, when each is assayed alone, to the EC50 of each compound when assayed in combination. The combination index (CI) is equal to the following formula: […]
# where C1 and C2 are the concentrations of a first and a second compound, respectively, resulting in 50% activity in neuronal differentiation when assayed in combination; and IC1 and IC2 are the concentrations of each compound resulting in 50% activity when assayed independently.
# [2] = test system: mGlu7 and mGlu8; details: at higher concentrations (e.g., above 1 μM); cited from earlier work
# [3] = test system: KA, AMPA, and NMDA iGlu receptors; details: cited from earlier work
# [4] = clinical reports; cited from earlier work
# [5] = target: human mGlu3 (Homo sapiens, UniProt Q14832); details: read-out: EC50 against human mGlu3 receptors; agonist, in vitro; cited from earlier work
# [6] = target: human mGlu2 (Homo sapiens, UniProt Q14416); details: read-out: EC50 against human mGlu2 receptors; agonist, in vitro; cited from earlier work
# [7] = not told; cited from earlier work
# [8] = test system: Human neural stem cells (hNSCs); details: maximum of curve
# [9] = test system: Human neural stem cells (hNSCs); test: cells; details: Neural stem cell, read-out: EC50 for astrocyte differentiation
# [10] = target: mGluR2 (Homo sapiens, UniProt Q14416); details: antagonist; read-out: IC50 against mGluR2; cited from earlier work
# [11] = test system: Group I and Group III receptors; details: at sub-mM concentrations; cited from earlier work
# [12] = target: mGluR3 (Homo sapiens, UniProt Q14832); details: antagonist; read-out: IC50 against mGluR3; cited from earlier work
# [13] = Homo sapiens, Neural stem cell, agent run independently, percentage of neuronal positive control, basal media values subtracted
# [14] = agent run independently, percentage of neuronal positive control, basal media values subtracted
# Sequence of human mGlu2 (Q14416 19-872): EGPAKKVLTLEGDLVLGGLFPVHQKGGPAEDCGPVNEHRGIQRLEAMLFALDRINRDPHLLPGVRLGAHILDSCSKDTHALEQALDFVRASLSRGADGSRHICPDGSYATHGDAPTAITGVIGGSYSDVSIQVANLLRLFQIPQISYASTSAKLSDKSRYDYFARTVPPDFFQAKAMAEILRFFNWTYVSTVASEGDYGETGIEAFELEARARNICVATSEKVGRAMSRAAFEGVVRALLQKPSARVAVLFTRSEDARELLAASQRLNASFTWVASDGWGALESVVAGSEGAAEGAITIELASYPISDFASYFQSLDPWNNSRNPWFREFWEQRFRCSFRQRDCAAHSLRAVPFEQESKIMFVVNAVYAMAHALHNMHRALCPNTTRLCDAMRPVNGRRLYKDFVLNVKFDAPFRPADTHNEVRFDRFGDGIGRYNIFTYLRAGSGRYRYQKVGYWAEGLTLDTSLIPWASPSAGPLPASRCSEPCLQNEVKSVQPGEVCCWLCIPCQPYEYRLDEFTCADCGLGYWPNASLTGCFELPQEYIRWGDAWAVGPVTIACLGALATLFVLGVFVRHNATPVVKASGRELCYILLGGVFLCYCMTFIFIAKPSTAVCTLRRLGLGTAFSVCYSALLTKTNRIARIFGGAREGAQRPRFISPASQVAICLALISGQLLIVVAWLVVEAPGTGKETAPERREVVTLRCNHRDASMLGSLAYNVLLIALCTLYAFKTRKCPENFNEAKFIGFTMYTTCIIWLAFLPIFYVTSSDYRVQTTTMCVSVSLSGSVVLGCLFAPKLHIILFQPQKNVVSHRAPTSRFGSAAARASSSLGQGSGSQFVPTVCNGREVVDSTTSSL
# Sequence of mGluR2 (Q14416 19-872): as above
# Sequence of human mGlu3 (Q14832 23-879): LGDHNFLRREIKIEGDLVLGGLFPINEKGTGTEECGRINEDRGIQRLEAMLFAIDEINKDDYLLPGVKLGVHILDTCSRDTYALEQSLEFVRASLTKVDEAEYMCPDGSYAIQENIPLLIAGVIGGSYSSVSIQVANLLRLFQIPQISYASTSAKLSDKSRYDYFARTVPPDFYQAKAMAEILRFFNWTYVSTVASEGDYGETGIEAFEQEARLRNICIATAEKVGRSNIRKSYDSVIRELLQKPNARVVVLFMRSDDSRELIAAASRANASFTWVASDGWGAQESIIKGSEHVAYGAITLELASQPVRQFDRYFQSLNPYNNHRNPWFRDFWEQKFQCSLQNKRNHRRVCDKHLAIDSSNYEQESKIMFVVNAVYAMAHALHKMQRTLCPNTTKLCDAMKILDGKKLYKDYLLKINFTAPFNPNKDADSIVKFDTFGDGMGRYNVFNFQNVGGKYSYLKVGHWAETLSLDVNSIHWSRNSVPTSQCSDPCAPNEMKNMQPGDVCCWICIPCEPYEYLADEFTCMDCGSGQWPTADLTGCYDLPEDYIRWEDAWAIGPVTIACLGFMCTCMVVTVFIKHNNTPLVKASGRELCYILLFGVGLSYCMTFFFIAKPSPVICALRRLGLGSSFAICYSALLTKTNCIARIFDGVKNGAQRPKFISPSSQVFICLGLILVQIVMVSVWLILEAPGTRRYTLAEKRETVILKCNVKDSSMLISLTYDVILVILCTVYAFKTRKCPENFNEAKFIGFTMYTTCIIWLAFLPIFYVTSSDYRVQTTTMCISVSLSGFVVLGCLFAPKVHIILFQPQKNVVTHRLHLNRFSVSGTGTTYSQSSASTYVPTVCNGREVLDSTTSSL
# Sequence of mGluR3 (Q14832 23-879): as above
structure (smiles),measurement,setting,value
Clc1ccc2c(c1)N=C(N1CCNCC1)c1ccccc1N2 [N-desmethylclozapine],neurogenic activity,[1]; in assays as disclosed herein (not specified),highly neurogenic
"CSc1ccc(C(=O)c2[nH]c(=O)[nH]c2C)cc1 [Enozimone, enoximone]",pEC50,[1]; [13],5.17
"N[C@](CC1c2ccccc2Oc2ccccc21)(C(=O)O)[C@H]1C[C@@H]1C(=O)O [LY341495, (2S)-2-amino-2-(1S,2S-2-carboxycycloprop-1-yl)-3-(xanth-9-yl)propanoic acid]",activity against mGlu7 and mGlu8,[2],antagonist activity
same,"activity against KA, AMPA, and NMDA iGlu receptors",[3],substantially inactive
CNCCC(Oc1ccc(C(F)(F)F)cc1)c1ccccc1 (stereo not shown) [fluoxetine],reported side effects / dose limiting toxicities,[4],sexual dysfunction and (rarely) agitation and increased suicidal thoughts
"N[C@@]1(C(=O)O)CO[C@H]2[C@H](C(=O)O)[C@H]21 [LY379268, (−)-2-Oxa-4-aminobicyclohexane-4,6-dicarboxylic acid]",pEC50,[5],> 8.00
same,pEC50,[6],> 8.00
NCC(CC(=O)O)c1ccc(Cl)cc1 (stereo not shown) [Baclofen],pEC50,"[1]; Homo sapiens, Neural stem cell",5.44
"Nc1c2c(nc3ccccc13)CCCC2 [Tacrine, tetrahydroaminoacridine]",pEC50,[1]; [13],5.10
"COC(=O)C(c1ccccc1)C1CCCCN1 (stereo not shown) [Ritalin, Methylphenidate hydrochloride]",pEC50,"[1]; Homo sapiens, Neural stem cell",5.46
C[C@H](CS)C(=O)N1CCC[C@H]1C(=O)O [captopril],pEC50,[1]; [13],5.42
same,pEC50,[1]; [14],5.70
"CNC(=O)Oc1ccc2c(c1)[C@]1(C)CCN(C)[C@@H]1N2C (single isomer, unassigned) [Physostigmine, 1,2,3,3a,8,8a-hexahydro-1,3a,8-trimethyl-, methylcarbamate (ester) or (3aS,8aR)-pyrrolo(2,3-b)indol-5-ol]",blood-brain barrier permeability,[7],capable of crossing the blood-brain barrier
O=C1CC2(CCCC2)CC(=O)N1CCCCN1CCN(c2ncccn2)CC1 [buspirone],pEC50,"[1]; Homo sapiens, Neural stem cell",5.08
same,"maximum astrocyte differentiation, % of the positive control",[8],60%
same,pEC50,[9],5.24
"NC1(C(=O)O)CCc2cc(P(=O)(O)O)ccc21 (racemic) [APICA, (RS)-1-amino-5-phosphonoindan-1-carboxylic acid]",pIC50,[10],~4.52
same,activity against Group I or Group III receptors,[11],no appreciable activity
same,pIC50,[12],~4.52
"COc1cc2c(cc1OC)C(=O)C(CC1CCN(Cc3ccccc3)CC1)C2 (stereo not shown) [donepezil, 2,3-dihydro-5,6-dimethoxy-2-((1-(phenylmethyl)-4-piperidinyl)methyl)-1H-inden-1-one]",pEC50,"[1]; agent run independently, percentage of neuronal positive control, basal media values subtracted, listed as Donepezil",5.69
same,pEC50,[1]; [14],5.33
"CN(CCOc1ccc(CC2SC(=O)NC2=O)cc1)c1ccccn1 (stereo not shown) [Rosiglitazone, rosiglitazone]",pEC50,[1]; [13],6.03
